Measurements as given in patent US8404680B2, “N-[3-(5-amino-3,3a,7,7a-tetrahydro-1H-2,4-dioxa-6-aza-inden-7-yl)-phenyl]-amides as BACE1 and/or BACE2 inhibitors” (Hoffmann-La Roche Inc., priority 2011, dated 2013).

Experiments:
BACE1 = target: T1, BACE1 (Homo sapiens, UniProt P56817); experiment: Cellular Aβ-lowering assay; format: cell-based; conditions: human HEK293 cells stably expressing human APP wt (APP695); Aβ40 in supernatant by ELISA after 18-20 hrs
T1 construct: Human HEK293 cells which are stably transfected with a vector expressing a cDNA of the human APP wt gene (APP695); endogenous in cells; host or cells: HEK293 (human), stably transfected with human APP695 wt
Protocol: Cellular Aβ-Lowering Assay:
Human HEK293 cells which are stably transfected with a vector expressing a cDNA of the human APP wt gene (APP695) were used to assess the potency of the compounds in a cellular assay. The cells were seeded in 96-well microtiter plates in cell culture medium (Iscove, plus 10% (v/v) fetal bovine serum, glutamine, penicillin/streptomycin) to about 80% confluence and the compounds were added at a 10× concentration in 1/10 volume of medium without FCS containing 8% DMSO (final concentration of DMSO was kept at 0.8% v/v). After 18-20 hrs incubation at 37° C. and 5% CO2 in a humidified incubator the culture supernatant was harvested for the determination of Aβ40 concentrations. 96well ELISA plates (e.g., Nunc MaxiSorb) were coated with monoclonal antibody which specifically recognize the C-terminal end of Aβ40 (Brockhaus et al., NeuroReport 9, 1481-1486; 1998). After blocking of non-specific binding sites with e.g. 1% BSA and washing, the culture supernatants were added in suitable dilutions together with a horseradish peroxidase-coupled Aβ detection antibody (e.g., antibody 4G8, Senetek, Md. Heights, Mo.) and incubated for 5 to 7 hrs. Subsequently the wells of the microtiter plate were washed extensively with Tris-buffered saline containing 0.05% Tween 20 and the assay was developed with tetramethylbenzidine/H2O2 in citric acid buffer. After stopping the reaction with one volume 1 NH2SO4 the reaction was measured in an ELISA reader at 450 nm wavelength. The concentrations of Aβ in the culture supernatants were calculated from a standard curve obtained with known amounts of pure Aβ peptide.

BACE2 = target: T2, BACE2 (Rattus norvegicus, UniProt Q6IE75); experiment: Assay for BACE inhibition by measuring cellular TMEM27 cleavage; format: cell-based; conditions: INS-TMEM27 (INS1e-derived rat cell line, inducible hTMEM27); shed TMEM27 in medium by ELISA
T2 construct: endogenous cellular BACE2 in the Ins1e rat cell line; endogenous in cells; host or cells: INS-TMEM27 (INS1e-derived rat cell line, TetOn-inducible full-length hTMEM27)
T2 sequence (Q6IE75 63-514): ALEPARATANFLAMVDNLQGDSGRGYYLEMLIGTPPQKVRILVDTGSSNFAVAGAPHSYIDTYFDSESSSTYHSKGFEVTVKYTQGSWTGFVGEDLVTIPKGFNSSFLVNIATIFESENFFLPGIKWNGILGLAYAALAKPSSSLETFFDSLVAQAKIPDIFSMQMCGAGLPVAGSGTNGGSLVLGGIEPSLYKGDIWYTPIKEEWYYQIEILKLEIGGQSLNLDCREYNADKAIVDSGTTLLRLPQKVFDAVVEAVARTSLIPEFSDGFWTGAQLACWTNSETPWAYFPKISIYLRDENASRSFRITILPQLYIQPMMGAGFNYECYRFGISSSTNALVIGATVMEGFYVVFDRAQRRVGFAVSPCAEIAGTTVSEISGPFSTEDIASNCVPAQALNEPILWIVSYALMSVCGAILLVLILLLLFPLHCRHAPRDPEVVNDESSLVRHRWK
Description: Assay for BACE Inhibition by Measuring Cellular TMEM27 Cleavage:
The assay uses the principle of inhibition of human TMEM27 cleavage by endogenous cellular BACE2 in the Ins1e rat cell line and shedding from the cell surface into the culture medium, followed by detection in an ELISA assay Inhibition of BACE2 prevents the cleavage and shedding in a dose-dependent manner.
The stable cell line “INS-TMEM27” represents an INS1e-derived cell line with inducible expression (using the TetOn system) of full-length hTMEM27 in a doxycycline-dependent manner. The cells are cultured throughout the experiment in RPMI1640+ Glutamax (Invitrogen) Penicillin/Streptomycin, 10% Fetal bovine serum, […], […], 100 micrograms/ml G418 and 100 microgram/ml hygromycin and are grown inadherent culture at 37° C. in a standard CO2 cell culture incubator.
INS-TMEM27 cells are seeded in 96-well plates. After 2 days in culture, BACE2 inhibitor is added in a range of concentrations as required by the assay and after a further two hours, doxycycline is added to a final concentration of 500 ng/ml. The cells are incubated for a further 46 hours and the supernatant harvested for detection of shed TMEM27.
An ELISA assay (using a pair of mouse anti-human-TMEM27 antibodies, raised against the extracellular domain of TMEM27) is used for detection of TMEM27 in the culture medium. An EC50 for BACE2 inhibition is calculated using the ELISA readout for each inhibitor concentration with standard curve-fitting software such as XLFit for the Excel spreadsheet program.

T1 sequence (P56817 46-501): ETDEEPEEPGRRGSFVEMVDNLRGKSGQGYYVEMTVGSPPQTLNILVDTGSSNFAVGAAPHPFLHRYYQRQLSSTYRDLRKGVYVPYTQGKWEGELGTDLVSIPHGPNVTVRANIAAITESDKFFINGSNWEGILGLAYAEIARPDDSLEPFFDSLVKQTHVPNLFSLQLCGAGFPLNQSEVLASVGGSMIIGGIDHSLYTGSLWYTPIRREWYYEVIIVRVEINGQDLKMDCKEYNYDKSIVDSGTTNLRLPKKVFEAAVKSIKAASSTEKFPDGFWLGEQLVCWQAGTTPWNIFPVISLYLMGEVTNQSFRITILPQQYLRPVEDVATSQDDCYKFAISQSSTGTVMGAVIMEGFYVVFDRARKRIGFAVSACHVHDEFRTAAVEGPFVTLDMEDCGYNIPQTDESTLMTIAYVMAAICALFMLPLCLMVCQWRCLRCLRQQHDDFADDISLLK

Compound	IC50 (BACE1) [nM]	IC50 (BACE2) [nM]
C[C@]1(c2cc(NC(=O)c3ccc(C#N)cn3)ccc2F)N=C(N)O[C@]2(C(F)(F)F)COC[C@H]12 (racemic) [Example 22, N-(3-((4SR,4aSR,7aSR)-2-amino-4-methyl-7a-(trifluoromethyl)-4a,5,7,7a-tetrahydro-4H-furo[3,4-e][1,3]oxazin-4-yl)-4-fluorophenyl)-5-cyanopicolinamide]	7	
C[C@]1(c2cc(NC(=O)c3ccc(Cl)cn3)ccc2F)N=C(N)O[C@]2(C(F)(F)F)COC[C@H]12 (racemic) [Example 21, N-(3-((4SR,4aSR,7aSR)-2-amino-4-methyl-7a-(trifluoromethyl)-4a,5,7,7a-tetrahydro-4H-furo[3,4-e][1,3]oxazin-4-yl)-4-fluorophenyl)-5-chloropicolinamide]	34	
C[C@]1(c2cc(NC(=O)c3cnc(OCC(F)(F)F)cn3)ccc2F)N=C(N)O[C@@H]2COC[C@@H]21 [Example 8, 5-(2,2,2-Trifluoro-ethoxy)-pyrazine-2-carboxylic acid [3-((3aS,7S,7aS)-5-amino-7-methyl-3,3a,7,7a-tetrahydro-1H-2,4-dioxa-6-aza-inden-7-yl)-4-fluoro-phenyl]-amide]	1.8	209
NC1=N[C@](CF)(c2cc(NC(=O)c3ccc(Cl)cn3)ccc2F)[C@H]2COC[C@H]2O1 [Example 14, 5-Chloro-pyridine-2-carboxylic acid [3-((3aS,7S,7aS)-5-amino-7-fluoromethyl-3,3a,7,7a-tetrahydro-1H-2,4-dioxa-6-aza-inden-7-yl)-4-fluoro-phenyl]-amide]	1	
CC#CCOc1cnc(C(=O)Nc2ccc(F)c([C@@]3(C)N=C(N)O[C@@H]4COC[C@@H]43)c2)cn1 [Example 7, 5-But-2-ynyloxy-pyrazine-2-carboxylic acid [3-((3aS,7S,7aS)-5-amino-7-methyl-3,3a,7,7a-tetrahydro-4H-2,4-dioxa-6-aza-inden-7-yl)-4-fluoro-phenyl]-amide]		47
N#Cc1ccc(C(=O)Nc2ccc(F)c([C@@]3(CF)N=C(N)O[C@@H]4COC[C@@H]43)c2)nc1 [Example 13, 5-Cyano-pyridine-2-carboxylic acid [3-((3aS,7S,7aS)-5-amino-7-fluoromethyl-3,3a,7,7a-tetrahydro-1H-2,4-dioxa-6-aza-inden-7-yl)-4-fluoro-phenyl]-amide]	1	
C[C@]1(c2cc(NC(=O)c3ccccn3)ccc2F)N=C(N)O[C@@H]2COC[C@@H]21 [Example 5, Pyridine-2-carboxylic acid [3-((3aS,7S,7aS)-5-amino-7-methyl-3,3a,7,7a-tetrahydro-4H-2,4-dioxa-6-aza-inden-7-yl)-4-fluoro-phenyl]-amide]	8	37
C[C@]1(c2cc(NC(=O)c3ccc(OCC4CC4)cn3)ccc2F)N=C(N)O[C@@H]2COC[C@@H]21 [Example 9, 5-Cyclopropylmethoxy-pyridine-2-carboxylic acid [3-((3aS,7S,7aS)-5-amino-7-methyl-3,3a,7,7a-tetrahydro-1H-2,4-dioxa-6-aza-inden-7-yl)-4-fluoro-phenyl]-amide]	5	
C[C@]1(c2cc(NC(=O)c3ncc(C#N)cc3Cl)ccc2F)N=C(N)O[C@@H]2COC[C@@H]21 [Example 12, N-(3-((4S,4aS,7aS)-2-amino-4-methyl-4a,5,7,7a-tetrahydro-4H-furo[3,4-e][1,3]oxazin-4-yl)-4-fluorophenyl)-3-chloro-5-cyanopicolinamide]	1	
C[C@]1(c2cc(NC(=O)c3ccc(OCC(F)(F)F)cn3)ccc2F)N=C(N)O[C@@H]2COC[C@@H]21 [Example 6, 5-(2,2,2-Trifluoro-ethoxy)-pyridine-2-carboxylic acid [3-((3aS,7S,7aS)-5-amino-7-methyl-3,3a,7,7a-tetrahydro-4H-2,4-dioxa-6-aza-inden-7-yl)-4-fluoro-phenyl]-amide]	6	556
C[C@]1(c2cc(NC(=O)c3ccc(F)cn3)ccc2F)N=C(N)O[C@@H]2COC[C@@H]21 [Example 3, 5-Fluoro-pyridine-2-carboxylic acid [3-((3aS,7S,7aS)-5-amino-7-methyl-3,3a,7,7a-tetrahydro-4H-2,4-dioxa-6-aza-inden-7-yl)-4-fluoro-phenyl]-amide]	2.5	18
C[C@]1(c2cc(NC(=O)c3ccc(C#N)cn3)ccc2F)N=C(N)O[C@@H]2COC[C@@H]21 [Example 4, 5-Cyano-pyridine-2-carboxylic acid [3-((3aS,7S,7aS)-5-amino-7-methyl-3,3a,7,7a-tetrahydro-4H-2,4-dioxa-6-aza-inden-7-yl)-4-fluoro-phenyl]-amide]		17
CC#CCOc1ccc(C(=O)Nc2ccc(F)c([C@@]3(C)N=C(N)O[C@@H]4COC[C@@H]43)c2)nc1 [Example 10, 5-But-2-ynyloxy-pyridine-2-carboxylic acid [3-((3aS,7S,7aS)-5-amino-7-methyl-3,3a,7,7a-tetrahydro-1H-2,4-dioxa-6-aza-inden-7-yl)-4-fluoro-phenyl]-amide]	0.1	
C[C@]1(c2cc(NC(=O)c3ccc(C#N)cn3)ccc2F)N=C(N)O[C@]2(C(F)(F)F)COC[C@H]12 (relative stereo) [Example 19, N-(3-(rel-(4SR,4aSR,7aSR)-2-amino-4-methyl-7a-(trifluoromethyl)-4a,5,7,7a-tetrahydro-4H-furo[3,4-e][1,3]oxazin-4-yl)-4-fluorophenyl)-5-cyanopicolinamide]	9	
C[C@]1(c2cc(NC(=O)c3ccc(OCC(F)(F)C(F)F)cn3)ccc2F)N=C(N)O[C@@H]2COC[C@@H]21 [Example 11, 5-(2,2,3,3-Tetrafluoro-propoxy)-pyridine-2-carboxylic acid [3-((3aS,7S,7aS)-5-amino-7-methyl-3,3a,7,7a-tetrahydro-1H-2,4-dioxa-6-aza-inden-7-yl)-4-fluoro-phenyl]-amide]	5	
CC#CCOc1cnc(C(=O)Nc2ccc(F)c([C@@]3(C)N=C(N)O[C@]4(C(F)(F)F)COC[C@H]34)c2)cn1 (relative stereo) [Example 20, N-(3-(rel-(4SR,4aSR,7aSR)-2-amino-4-methyl-7a-(trifluoromethyl)-4a,5,7,7a-tetrahydro-4H-furo[3,4-e][1,3]oxazin-4-yl)-4-fluorophenyl)-5-(but-2-ynyloxy)pyrazine-2-carboxamide]	7	
NC1=N[C@@](c2cc(NC(=O)c3ccc(Cl)cn3)ccc2F)(C(F)F)[C@H]2COC[C@H]2O1 [Example 16, 5-Chloro-pyridine-2-carboxylic acid [3-((3aS,7S,7aS)-5-amino-7-difluoromethyl-3,3a,7,7a-tetrahydro-1H-2,4-dioxa-6-aza-inden-7-yl)-4-fluoro-phenyl]-amide]	5.5	
NC1=N[C@](CF)(c2cc(NC(=O)c3ccc(F)cn3)ccc2F)[C@H]2COC[C@H]2O1 [Example 15, 5-Fluoro-pyridine-2-carboxylic acid [3-((3aS,7S,7aS)-5-amino-7-fluoromethyl-3,3a,7,7a-tetrahydro-1H-2,4-dioxa-6-aza-inden-7-yl)-4-fluoro-phenyl]-amide]	2.5	
